What was measured:
[1] = system: antibodies in sera of individuals which have been and/or are infected by SARS-CoV (SARS-green, SARS-yellow, 1a, 1b, 2, 6, 37, 62, London); assay type: binding, human
[2] = system: antibodies in control sera (pooled serum of 10 healthy LUMC hospital workers; commercial negative donor pooled serum); assay type: binding, human

Sequence | recognition by sera of SARS-CoV infected individuals (domains homologous with OC43 spike) [1] | recognition by control sera (domains homologous with OC43 spike) [2]
VLYENQKQIANQFNKAISQIQ [SEQ ID NO:1245] | recognition by sera derived from individuals which have been and/or are still infected by SARS-CoV | recognition by control sera derived from individuals which have not been infected by SARS-CoV
GYHLMSFPQAAPHGVVFLHVTYVPSQERNFTTAPAICHEGKAYFPREG [SEQ ID NO:1247] | recognition by sera derived from individuals which have been and/or are still infected by SARS-CoV | recognition by control sera derived from individuals which have not been infected by SARS-CoV

Source: patent publication US20060110803A1 (Crucell Holland B.V., priority 2003, published 2006)
